Experimental data reported in US12029751B2, “Therapeutic agent for nervous system disease” (OSAKA UNIVERSITY, priority 2017, dated 2024).

Columns and labels:
[1] = system: cerebral cortical neurons; assay: TUNEL assay, apoptosis inhibiting effect on cerebral cortical neurons; assay type: cell-based, rat; settings: after 18 hours
Text: Cerebral cortical neurons were collected and cultured by a conventional method. Cerebral cortex was dissected from a fetus of a Sprague-Dawley (SD) rat (18th day of pregnancy) and recovered in ice-cooled Dulbecco's Modified Eagle Medium (DMEM) containing 10% fetal bovine serum (FBS) and 1% penicillin/streptomycin. The pia mater and blood vessels were removed, and the remaining cerebral cortex was transferred to DMEM (containing 1% penicillin/streptomycin and no FBS) and cut into small pieces having a size of 1 mm by surgical scissors. Papain (final concentration, 2 mg/ml) was added to the cell mixture, and the mixture was allowed to react at 37° C. for 30 minutes. DNase I (70 U/ml) was added to the reaction mixture and reaction was carried out for 30 seconds. Then, DMEM containing 10% FBS and 1% penicillin/streptomycin was added to terminate the reaction. The cell mixture was centrifuged at 800 rpm, the residue was re-suspended in DMEM containing 10% FBS and 1% penicillin/streptomycin, and the suspension was seeded on a dish coated with poly-L lysine (PLL). At 4 hours after the cell seeding, the medium was replaced with Neurobasal medium (containing 10% B27 supplement and 1% penicillin/streptomycin).
To the cerebral cortical neurons (Example 1-1) cultured on a PLL-coated 8-well chamber slide, 20 mM glutamic acid and […] methylcobalamin (MeCbl) were added. After 18 hours, the proportion of apoptotic cells was evaluated using Promega's DeadEnd Fluorometric TUNEL System. Cells were fixed with 4% paraformaldehyde (PFA) at 4° C. for 25 minutes. After cells were permeabilized with 0.2% Triton X-100 for 5 minutes, an incubation buffer was added, and the mixture was left stand at 37° C. with light shielding for 60 minutes to label the permeabilized cells. The nuclei were labeled with 4′6-diamidino-2-phenylindole (DAPI). The total cell number and the number of TUNEL-positive cells were determined.

[2] = system: rat spinal cord injury model; assay: BBB score in rat spinal cord injury model (lateral hemisection model); assay type: in vivo; settings: 1 mg/kg/day osmotic minipump; for BBB score: left lower extremity
Protocol: Six-week-old female Wistar rats were used. The rats were purchased from Charles River Laboratories Japan, Inc. (Yokohama, Japan). Anesthesia was performed as follows. A 1:10 dilution of a mixture of three anesthetic agents in physiological saline was administered by intraperitoneal injection. One dose consisted of 0.2 mg/kg of midazolam, 0.015 mg/kg of medetomidine, and 0.25 mg/kg of butorphanol. The rat was placed in a prone position on an operating table, and a dorsal midline incision was made. The T10 vertebral arch was removed to expose the posterior face of the spinal cord, and the left spinal cord was hemisected using a sharp-pointed surgical scalpel (spitz mess). The skin was sutured using a 4-0 nylon thread and the surgery was completed. A comparison was made among three groups: a methylcobalamin treatment group, an untreated group, and a sham group. Immediately after the surgical operation, an osmotic minipump filled with methylcobalamin (1 mg/kg/day) or physiological saline was placed for the methylcobalamin treatment group and the untreated group, respectively, and left in the left dorsal subcutaneous space. The sham group underwent only resection of the Th10 vertebral arch.
Each rat was separately accommodated in a cage, allowed to walk freely, and observed for 5 minutes. According to a conventional method, left-lower-extremity function was evaluated using scores of 0 (no locomotion) to 21 (normal locomotion). The evaluations were performed before surgery, and at 1, 7, 14, 21, and 28 days after the surgery.

With `C/C1=C2/[N-][C@H]([C@H](CC(N)=O)[C@@]2(C)CCC(=O)NC[C@@H](C)OP(=O)([O-])O[C@H]2[C@@H](O)[C@@H](n3cnc4cc(C)c(C)cc43)O[C@@H]2CO)[C@]2(C)N=C(/C(C)=C3N=C(/C=C4N=C1[C@@H](CCC(N)=O)C\4(C)C)[C@@H](CCC(N)=O)[C@]\3(C)CC(N)=O)[C@@H](CCC(N)=O)[C@]2(C)CC(N)=O.[CH3-].[Co+3]` [MeCbl, methylcobalamin] the “proportion of apoptotic cells” value ([1]; 20 mM glutamic acid + methylcobalamin) was 5.6%, the “proportion of apoptotic cells” value ([1]; 20 mM glutamic acid + methylcobalamin, listed as methylcobalamin) was “significantly decreased to the level of the control” and the “proportion of apoptotic cells” value ([1]; MeCbl alone (Glutamate −), methylcobalamin) was 5.9%. The BBB score ([2]; 0 days after surgery (before surgery)) was 21, the “left-lower-extremity motor function (BBB score) as compared to the untreated group” value ([2]; 14, 21, and 28 days after the surgery) was “significantly improved” and the BBB score ([2]; 1 day after surgery) was 0.17. The BBB score ([2]; 7 days after surgery) was 8.33, the BBB score ([2]; 14 days after surgery) was 15.50 and the BBB score ([2]; 21 days after surgery) was 16.33. The BBB score ([2]; 28 days after surgery) was 17.
